The subject of experiment [1] is Klebsiella pneumoniae. The experiment is described as follows: Antibacterial activity against beta-lactamase KPC-2 producing Klebsiella pneumoniae isolate K1 to K9 by agar dilution method. It is filed as functional. Background: Agar dilution tests growth on a series of plates holding different concentrations.
Experiment [2] relates to Serratia marcescens. The experiment is described as follows: Antibacterial activity against beta-lactamase KPC-2 producing Serratia marcescens isolate S1 to S21 by agar dilution method.
Experiment [3] relates to Klebsiella pneumoniae. The experiment is described as follows: Antibacterial activity against beta-lactamase KPC-2 producing Klebsiella pneumoniae isolate K10 by agar dilution method. It is filed as functional.
The test system of experiment [4] is Escherichia coli. The experiment is described as follows: Antibacterial activity against Escherichia coli EC600 by agar dilution method. Format: functional.
For experiment [5], the system named is Escherichia coli. Put plainly: Antibacterial activity against Escherichia coli EC600 transconjugant harboring beta-lactamase KPC-2 by agar dilution method. Format: functional.
The test system of experiment [6] is Escherichia coli. The experiment is described as follows: microbe, parasite or virus in culture. As to conditions: isolate E1.
Description: (§1) Antibacterial activity against beta-lactamase KPC-2 producing Escherichia coli isolate E1 by agar dilution method
The subject of experiment [7] is Serratia marcescens. The experiment is described as follows: Antibacterial activity against beta-lactamase KPC-2 producing Serratia marcescens isolate S1 to S21 in presence of Sulbactam by agar dilution method. Format: functional.
In experiment [8] the test system is Klebsiella pneumoniae. Put plainly: Antibacterial activity against beta-lactamase KPC-2 producing Klebsiella pneumoniae isolate K1 to K9 in presence of Sulbactam by agar dilution method. Format: functional.
For experiment [9], the system named is Klebsiella pneumoniae. The experiment is described as follows: Antibacterial activity against beta-lactamase KPC-2 producing Klebsiella pneumoniae isolate K10 in presence of Sulbactam by agar dilution method. Format: functional.
Experiment [10] deals with Escherichia coli. The experiment is described as follows: Antibacterial activity against Escherichia coli EC600 in presence of Sulbactam by agar dilution method. It is filed as functional.
Experiment [11] concerns Escherichia coli. The experiment is described as follows: Antibacterial activity against Escherichia coli EC600 transconjugant harboring beta-lactamase KPC-2 in presence of Sulbactam by agar dilution method.
The test system of experiment [12] is Escherichia coli. The experiment is described as follows: microbe, parasite or virus in culture. As to conditions: isolate E1. This is another data set of the same source.
Description: Antibacterial activity against beta-lactamase KPC-2 producing Escherichia coli isolate E1 in presence of Sulbactam by agar dilution method
For experiment [13], the system named is Serratia marcescens. The experiment is described as follows: Antibacterial activity against beta-lactamase KPC-2 producing Serratia marcescens isolate S1 to S21 in presence of Tazobactam by agar dilution method. Format: functional.
Experiment [14] deals with Klebsiella pneumoniae. The experiment is described as follows: Antibacterial activity against beta-lactamase KPC-2 producing Klebsiella pneumoniae isolate K1 to K9 in presence of Tazobactam by agar dilution method. Format: functional.
Experiment [15] concerns Klebsiella pneumoniae. Put plainly: Antibacterial activity against beta-lactamase KPC-2 producing Klebsiella pneumoniae isolate K10 in presence of Tazobactam by agar dilution method. It is filed as functional.
Experiment [16] concerns Escherichia coli. Put plainly: Antibacterial activity against beta-lactamase KPC-2 producing Escherichia coli isolate E1 in presence of Tazobactam by agar dilution method. It is filed as functional.
Experiment [17] relates to Escherichia coli. The experiment is described as follows: Antibacterial activity against Escherichia coli EC600 in presence of Tazobactam by agar dilution method. Format: functional.
For experiment [18], the system named is Escherichia coli. Put plainly: Antibacterial activity against Escherichia coli EC600 transconjugant harboring beta-lactamase KPC-2 in presence of Tazobactam by agar dilution method. It is filed as functional.
The test system of experiment [19] is Escherichia coli. As to conditions: isolate E1.
Description: as §1

In brackets after ≈: the same amount, converted by molar mass.

Regarding `C[C@@H](O)[C@H]1C(=O)N2C(C(=O)O)=C(S[C@@H]3CN[C@H](C(=O)Nc4cccc(C(=O)O)c4)C3)[C@H](C)[C@H]12`, the MIC in the experiment with Klebsiella pneumoniae [1] is 8 µg/mL (≈ 16.8 µM); in the experiment on Serratia marcescens [2] it was 4 µg/mL (≈ 8.41 µM); against Klebsiella pneumoniae [3], greater than 256 µg/mL; with Escherichia coli [4], no more than 0.125 µg/mL; in the experiment on Escherichia coli [5], 4 µg/mL (≈ 8.41 µM); with Escherichia coli [6], 8 µg/mL (≈ 16.8 µM).
In the case of `CO/N=C(\C(=O)N[C@@H]1C(=O)N2C(C(=O)[O-])=C(C[N+]3(C)CCCC3)CS[C@H]12)c1csc(N)n1`, the MIC against Serratia marcescens [2] was 8 µg/mL (≈ 16.6 µM); with Klebsiella pneumoniae [3], 256 µg/mL (≈ 533 µM); in the experiment with Escherichia coli [4], no more than 0.125 µg/mL; against Escherichia coli [5] it was 8 µg/mL (≈ 16.6 µM); against Escherichia coli [6], 64 µg/mL (≈ 133 µM).
In the case of `CC1(C)S[C@@H]2[C@H](NC(=O)[C@H](N)c3ccccc3)C(=O)N2[C@H]1C(=O)O` [AMPICILLIN], the MIC against Klebsiella pneumoniae [1] was greater than 256 µg/mL; against Serratia marcescens [2], greater than 256 µg/mL; against Klebsiella pneumoniae [3], greater than 256 µg/mL; in the experiment on Escherichia coli [4] it was 8 µg/mL (≈ 22.9 µM); against Escherichia coli [5], greater than 256 µg/mL; against Escherichia coli [6] it was greater than 256 µg/mL.
`C[C@H]1[C@H](NC(=O)/C(=N\OC(C)(C)C(=O)O)c2csc(N)n2)C(=O)N1S(=O)(=O)O` [AZTREONAM]: the MIC is 256 µg/mL (≈ 588 µM) with Klebsiella pneumoniae [1]; 128 µg/mL (≈ 294 µM) with Serratia marcescens [2]; greater than 256 µg/mL against Klebsiella pneumoniae [3]; no more than 0.125 µg/mL in the experiment with Escherichia coli [4]; 128 µg/mL (≈ 294 µM) in the experiment on Escherichia coli [5]; 256 µg/mL (≈ 588 µM) against Escherichia coli [6].
As for `CCN1CCN(C(=O)N[C@@H](C(=O)N[C@@H]2C(=O)N3C(C(=O)O)=C(CSc4nnnn4C)CS[C@H]23)c2ccc(O)cc2)C(=O)C1=O` [CEFOPERAZONE], the MIC is 32 µg/mL in the experiment on Serratia marcescens [7]; 128 µg/mL in the experiment with Klebsiella pneumoniae [8]; greater than 256 µg/mL in the experiment on Klebsiella pneumoniae [9]; no more than 0.125 µg/mL in the experiment with Escherichia coli [10]; 32 µg/mL with Escherichia coli [11]; 128 µg/mL (≈ 198 µM) against Escherichia coli [12].
Consider `CO/N=C(\C(=O)N[C@@H]1C(=O)N2C(C(=O)O)=C(COC(C)=O)CS[C@H]12)c1csc(N)n1` [CEFOTAXIME], for which the MIC in the experiment with Klebsiella pneumoniae [1] is 128 µg/mL (≈ 281 µM); against Serratia marcescens [2], 16 µg/mL (≈ 35.1 µM); against Klebsiella pneumoniae [3] it was 256 µg/mL (≈ 562 µM); against Escherichia coli [4], no more than 0.125 µg/mL; against Escherichia coli [5], 8 µg/mL (≈ 17.6 µM); in the experiment with Escherichia coli [6], 256 µg/mL (≈ 562 µM).
For `CO[C@@]1(NC(=O)Cc2cccs2)C(=O)N2C(C(=O)O)=C(COC(N)=O)CS[C@@H]21` [CEFOXITIN], the MIC against Klebsiella pneumoniae [1] stood at 8 µg/mL (≈ 18.7 µM); in the experiment on Serratia marcescens [2], 16 µg/mL (≈ 37.4 µM); against Klebsiella pneumoniae [3], 256 µg/mL (≈ 599 µM); against Escherichia coli [4], 8 µg/mL (≈ 18.7 µM); against Escherichia coli [5], 16 µg/mL (≈ 37.4 µM); against Escherichia coli [6], 32 µg/mL (≈ 74.9 µM).
Turning to `CC(C)(O/N=C(\C(=O)N[C@@H]1C(=O)N2C(C(=O)[O-])=C(C[n+]3ccccc3)CS[C@H]12)c1csc(N)n1)C(=O)O` [CEFTAZIDIME], the MIC in the experiment on Klebsiella pneumoniae [1] amounted to 64 µg/mL (≈ 117 µM); with Serratia marcescens [2], 8 µg/mL (≈ 14.6 µM); against Klebsiella pneumoniae [3], 256 µg/mL (≈ 468 µM); in the experiment with Escherichia coli [4], 0.25 µg/mL (≈ 0.457 µM); with Escherichia coli [5], 16 µg/mL (≈ 29.3 µM); in the experiment on Escherichia coli [6], 64 µg/mL (≈ 117 µM).
Consider `CO/N=C(\C(=O)N[C@@H]1C(=O)N2C(C(=O)O)=C(CSc3nc(=O)c(O)nn3C)CS[C@H]12)c1csc(N)n1` [CEFTRIAXONE], for which the MIC against Klebsiella pneumoniae [1] is 256 µg/mL (≈ 462 µM); against Serratia marcescens [2] it was 32 µg/mL (≈ 57.7 µM); in the experiment on Klebsiella pneumoniae [3] it was greater than 256 µg/mL; against Escherichia coli [4], no more than 0.125 µg/mL; against Escherichia coli [5] it was 32 µg/mL (≈ 57.7 µM); against Escherichia coli [6], greater than 256 µg/mL.
`O=C(O)c1cn(C2CC2)c2cc(N3CCNCC3)c(F)cc2c1=O` [CIPROFLOXACIN] had an MIC in the experiment with Escherichia coli [6] greater than 32 µg/mL.
For `C[C@@H](O)[C@H]1C(=O)N2C(C(=O)O)=C(SCCNC=N)C[C@H]12` [IMIPENEM ANHYDROUS], the MIC against Klebsiella pneumoniae [1] was 2 µg/mL (≈ 6.68 µM); against Serratia marcescens [2] it was 4 µg/mL (≈ 13.4 µM); against Klebsiella pneumoniae [3], 128 µg/mL (≈ 428 µM); with Escherichia coli [4], no more than 0.125 µg/mL; in the experiment with Escherichia coli [5], 1 µg/mL (≈ 3.34 µM); with Escherichia coli [6], 2 µg/mL (≈ 6.68 µM).
`C[C@@H](O)[C@H]1C(=O)N2C(C(=O)O)=C(S[C@@H]3CN[C@H](C(=O)N(C)C)C3)[C@H](C)[C@H]12` [MEROPENEM]: the MIC is 2 µg/mL (≈ 5.22 µM) against Serratia marcescens [2]; 256 µg/mL (≈ 668 µM) against Klebsiella pneumoniae [3]; no more than 0.125 µg/mL against Escherichia coli [4]; 2 µg/mL (≈ 5.22 µM) in the experiment on Escherichia coli [5]; 2 µg/mL (≈ 5.22 µM) in the experiment with Escherichia coli [6].
Regarding `CCN1CCN(C(=O)N[C@@H](C(=O)N[C@@H]2C(=O)N3[C@@H]2SC(C)(C)[C@@H]3C(=O)O)c2ccccc2)C(=O)C1=O` [PIPERACILLIN], the MIC against Serratia marcescens [2] is 256 µg/mL (≈ 495 µM); against Klebsiella pneumoniae [3], greater than 256 µg/mL; with Escherichia coli [4] it was 1 µg/mL (≈ 1.93 µM); against Escherichia coli [5], 256 µg/mL (≈ 495 µM); with Serratia marcescens [13], 128 µg/mL; with Klebsiella pneumoniae [14], greater than 256 µg/mL. For the same molecule, the MIC with Klebsiella pneumoniae [15] was greater than 256 µg/mL; in the experiment on Escherichia coli [16], 256 µg/mL; with Escherichia coli [17] it was 1 µg/mL; in the experiment on Escherichia coli [18] it was 256 µg/mL; against Escherichia coli [6], greater than 256 µg/mL.
For the molecule GENTAMICIN, the MIC against Klebsiella pneumoniae [1] was greater than 256 µg/mL; against Klebsiella pneumoniae [3] it was greater than 256 µg/mL; in the experiment with Escherichia coli [4] it was 0.25 µg/mL; in the experiment with Escherichia coli [5], 0.25 µg/mL; in the experiment on Escherichia coli [19] it was 64 µg/mL.

(Values after ChEMBL document CHEMBL1255346 (2008).)
